From article PMC10905675, “INX-315, a Selective CDK2 Inhibitor, Induces Cell Cycle Arrest and Senescence in Solid Tumors” (Cancer Discovery, 2023)

Columns and labels:
Assay in all cases: SelectScreen ZLYTE
Assay type in all cases: biochemical
Settings in all cases: INX-0315 at 100nM
GRK7 = target: T1, GRK7 (Homo sapiens, UniProt Q8WTQ7)
T1 construct: purchased Thermo Fisher Scientific SelectScreen (plus Nanosyn / Reaction Biology for CDK/cyclin lines)
From the text: (§1) INX-315 was first evaluated in the SelectScreen Biochemical Kinase Profiling at Thermo Fisher Scientific (Madison, WI). The primary screen consisted of INX-315 dosed at a single concentration of 100 nmol/L in 1% DMSO across each platform within the SelectScreen array of assays, LanthaScreen Eu Kinase Binding Assay; AdaptaScreen; and Z'LyteScreen using preestablished conditions at Thermo Fisher Scientific as shown in Supplementary Table S2. […] The follow-up screen consisted of 10-point dose–response curves for INX-315 from 1 µmol/L to 0.0495 nmol/L.

MARK1 (MARK) = target: T2, MARK1 (MARK) (Homo sapiens, UniProt Q9P0L2)
T2 construct: purchased Thermo Fisher Scientific SelectScreen (plus Nanosyn / Reaction Biology for CDK/cyclin lines)
T2 sequence (Q9P0L2 whole entry): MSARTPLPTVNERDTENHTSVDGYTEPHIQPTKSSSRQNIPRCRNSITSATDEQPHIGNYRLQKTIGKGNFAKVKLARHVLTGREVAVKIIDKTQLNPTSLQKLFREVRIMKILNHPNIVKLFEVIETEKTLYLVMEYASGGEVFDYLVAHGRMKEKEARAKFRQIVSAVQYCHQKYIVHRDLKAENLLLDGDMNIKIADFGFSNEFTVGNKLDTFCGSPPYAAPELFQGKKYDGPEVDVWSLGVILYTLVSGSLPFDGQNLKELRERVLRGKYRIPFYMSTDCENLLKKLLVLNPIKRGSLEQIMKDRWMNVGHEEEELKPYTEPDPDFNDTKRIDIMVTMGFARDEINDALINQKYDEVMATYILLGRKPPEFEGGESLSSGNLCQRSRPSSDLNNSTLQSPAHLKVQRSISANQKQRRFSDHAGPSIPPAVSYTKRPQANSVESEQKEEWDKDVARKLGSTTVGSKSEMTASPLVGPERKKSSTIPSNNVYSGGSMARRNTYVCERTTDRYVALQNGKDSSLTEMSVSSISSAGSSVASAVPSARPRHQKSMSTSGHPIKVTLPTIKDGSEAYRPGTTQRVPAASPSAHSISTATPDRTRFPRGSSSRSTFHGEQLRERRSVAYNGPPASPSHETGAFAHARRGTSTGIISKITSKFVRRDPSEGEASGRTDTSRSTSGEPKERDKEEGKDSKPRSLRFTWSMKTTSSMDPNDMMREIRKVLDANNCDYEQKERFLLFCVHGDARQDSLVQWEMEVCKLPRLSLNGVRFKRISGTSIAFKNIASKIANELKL
From the text: as §1

GSK3B (GSK3 beta) = target: T3, GSK3B (GSK3 beta) (Homo sapiens, UniProt P49841)
T3 construct: purchased Thermo Fisher Scientific SelectScreen (plus Nanosyn / Reaction Biology for CDK/cyclin lines)
From the text: as §1

CDK5/p25 = target: T4, CDK5/p25 (Homo sapiens, UniProt Q00535)
T4 construct: purchased BPS 40105
T4 sequence (Q00535 whole entry): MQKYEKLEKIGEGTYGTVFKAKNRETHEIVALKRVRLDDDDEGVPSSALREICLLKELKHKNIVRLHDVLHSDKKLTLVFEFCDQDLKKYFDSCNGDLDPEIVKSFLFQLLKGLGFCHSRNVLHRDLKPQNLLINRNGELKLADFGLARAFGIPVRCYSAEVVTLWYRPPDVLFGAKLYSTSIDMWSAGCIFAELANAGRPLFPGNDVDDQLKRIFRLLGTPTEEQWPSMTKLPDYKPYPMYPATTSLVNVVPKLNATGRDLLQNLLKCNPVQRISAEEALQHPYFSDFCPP
T4 sequence (Q15078 99-307 partner limits assumed): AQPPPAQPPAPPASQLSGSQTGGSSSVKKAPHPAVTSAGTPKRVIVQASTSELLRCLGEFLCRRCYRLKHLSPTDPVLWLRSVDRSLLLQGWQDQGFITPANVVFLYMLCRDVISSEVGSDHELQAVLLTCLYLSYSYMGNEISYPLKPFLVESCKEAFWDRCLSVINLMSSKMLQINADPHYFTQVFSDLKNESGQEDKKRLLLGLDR
From the text: as §1

RET V804E = target: T5, RET V804E (Homo sapiens, UniProt P07949, V804E)
T5 construct: purchased Thermo Fisher Scientific SelectScreen (plus Nanosyn / Reaction Biology for CDK/cyclin lines)
From the text: as §1

BLK = target: T6, BLK (Homo sapiens, UniProt P51451)
T6 construct: purchased Thermo Fisher Scientific SelectScreen (plus Nanosyn / Reaction Biology for CDK/cyclin lines)
From the text: as §1

SGKL (SGK3) = target: T7, SGKL (SGK3) (Homo sapiens, UniProt Q96BR1)
T7 construct: purchased Thermo Fisher Scientific SelectScreen (plus Nanosyn / Reaction Biology for CDK/cyclin lines)
From the text: as §1

PDK1 Direct = target: T8, PDK1 Direct (Homo sapiens, UniProt O15530)
T8 construct: purchased Thermo Fisher Scientific SelectScreen (plus Nanosyn / Reaction Biology for CDK/cyclin lines)
From the text: as §1

MARK4 = target: T9, MARK4 (Homo sapiens, UniProt Q96L34)
T9 construct: purchased Thermo Fisher Scientific SelectScreen (plus Nanosyn / Reaction Biology for CDK/cyclin lines)
T9 sequence (Q96L34 whole entry): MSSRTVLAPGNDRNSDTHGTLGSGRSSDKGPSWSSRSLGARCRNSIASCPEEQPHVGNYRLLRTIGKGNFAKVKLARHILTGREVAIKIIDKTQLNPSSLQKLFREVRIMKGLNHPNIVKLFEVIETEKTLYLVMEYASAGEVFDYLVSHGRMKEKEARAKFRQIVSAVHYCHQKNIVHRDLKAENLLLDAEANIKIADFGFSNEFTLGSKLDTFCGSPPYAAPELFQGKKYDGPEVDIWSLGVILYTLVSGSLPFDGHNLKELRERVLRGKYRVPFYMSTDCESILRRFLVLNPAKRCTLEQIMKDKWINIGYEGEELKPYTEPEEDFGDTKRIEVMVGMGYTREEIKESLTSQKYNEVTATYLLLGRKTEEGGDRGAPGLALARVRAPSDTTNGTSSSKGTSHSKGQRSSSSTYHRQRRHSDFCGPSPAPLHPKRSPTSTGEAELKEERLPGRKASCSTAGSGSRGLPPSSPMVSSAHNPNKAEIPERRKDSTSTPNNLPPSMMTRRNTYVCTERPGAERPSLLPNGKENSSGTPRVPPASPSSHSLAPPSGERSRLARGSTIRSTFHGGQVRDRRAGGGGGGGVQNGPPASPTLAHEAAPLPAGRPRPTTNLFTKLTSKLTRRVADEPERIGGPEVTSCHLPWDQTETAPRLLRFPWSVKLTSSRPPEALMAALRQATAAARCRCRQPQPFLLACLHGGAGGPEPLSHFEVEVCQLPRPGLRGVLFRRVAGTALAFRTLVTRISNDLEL
From the text: as §1

BRSK1 (SAD1) = target: T10, BRSK1 (SAD1) (Homo sapiens, UniProt Q8TDC3)
T10 construct: purchased Thermo Fisher Scientific SelectScreen (plus Nanosyn / Reaction Biology for CDK/cyclin lines)
From the text: as §1

AKT1 (PKB alpha) = target: T11, AKT1 (PKB alpha) (Homo sapiens, UniProt P31749)
T11 construct: purchased Thermo Fisher Scientific SelectScreen (plus Nanosyn / Reaction Biology for CDK/cyclin lines)
From the text: as §1

RAF1 (cRAF) Y340D Y341D = target: T12, RAF1 (cRAF) Y340D Y341D (Homo sapiens, UniProt P04049, Y340D/Y341D)
T12 construct: purchased Thermo Fisher Scientific SelectScreen (plus Nanosyn / Reaction Biology for CDK/cyclin lines)
From the text: as §1

PEAK1 = target: T13, PEAK1 (Homo sapiens, UniProt Q9H792)
T13 construct: purchased Thermo Fisher Scientific SelectScreen (plus Nanosyn / Reaction Biology for CDK/cyclin lines)
From the text: as §1

CAMK1D (CaMKI delta) = target: T14, CAMK1D (CaMKI delta) (Homo sapiens, UniProt Q8IU85)
T14 construct: purchased Thermo Fisher Scientific SelectScreen (plus Nanosyn / Reaction Biology for CDK/cyclin lines)
From the text: as §1

HIPK3 (YAK1) = target: T15, HIPK3 (YAK1) (Homo sapiens, UniProt Q9H422)
T15 construct: purchased Thermo Fisher Scientific SelectScreen (plus Nanosyn / Reaction Biology for CDK/cyclin lines)
From the text: as §1

BMX = target: T16, BMX (Homo sapiens, UniProt P51813)
T16 construct: purchased Thermo Fisher Scientific SelectScreen (plus Nanosyn / Reaction Biology for CDK/cyclin lines)
From the text: as §1

MAP2K2 (MEK2) = target: T17, MAP2K2 (MEK2) (Homo sapiens, UniProt P36507)
T17 construct: purchased Thermo Fisher Scientific SelectScreen (plus Nanosyn / Reaction Biology for CDK/cyclin lines)
From the text: as §1

ABL1 G250E = target: T18, ABL1 G250E (Homo sapiens, UniProt P00519, G250E)
T18 construct: purchased Thermo Fisher Scientific SelectScreen (plus Nanosyn / Reaction Biology for CDK/cyclin lines)
From the text: as §1

SGK2 = target: T19, SGK2 (Homo sapiens, UniProt Q9HBY8)
T19 construct: purchased Thermo Fisher Scientific SelectScreen (plus Nanosyn / Reaction Biology for CDK/cyclin lines)
From the text: as §1

PHKG1 = target: T20, PHKG1 (Homo sapiens, UniProt Q16816)
T20 construct: purchased Thermo Fisher Scientific SelectScreen (plus Nanosyn / Reaction Biology for CDK/cyclin lines)
From the text: as §1

MAPK10 (JNK3) = target: T21, MAPK10 (JNK3) (Homo sapiens, UniProt P53779)
T21 construct: purchased Thermo Fisher Scientific SelectScreen (plus Nanosyn / Reaction Biology for CDK/cyclin lines)
From the text: as §1

CLK3 = target: T22, CLK3 (Homo sapiens, UniProt P49761)
T22 construct: purchased Thermo Fisher Scientific SelectScreen (plus Nanosyn / Reaction Biology for CDK/cyclin lines)
T22 sequence (P49761 whole entry): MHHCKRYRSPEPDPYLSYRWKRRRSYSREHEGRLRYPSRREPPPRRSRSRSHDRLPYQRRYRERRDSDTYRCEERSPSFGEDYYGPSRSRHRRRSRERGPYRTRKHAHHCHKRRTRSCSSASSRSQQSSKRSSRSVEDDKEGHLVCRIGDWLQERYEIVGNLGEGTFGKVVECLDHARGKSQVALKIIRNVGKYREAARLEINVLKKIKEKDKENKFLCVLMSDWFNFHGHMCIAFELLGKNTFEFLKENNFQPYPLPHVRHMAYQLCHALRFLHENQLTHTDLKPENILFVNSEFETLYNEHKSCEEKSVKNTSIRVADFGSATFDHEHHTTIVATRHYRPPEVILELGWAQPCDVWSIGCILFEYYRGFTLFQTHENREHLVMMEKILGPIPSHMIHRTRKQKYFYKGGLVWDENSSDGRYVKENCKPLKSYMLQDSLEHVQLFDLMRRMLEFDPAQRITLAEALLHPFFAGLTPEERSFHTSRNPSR
From the text: as §1

RPS6KA6 (RSK4) = target: T23, RPS6KA6 (RSK4) (Homo sapiens, UniProt Q9UK32)
T23 construct: purchased Thermo Fisher Scientific SelectScreen (plus Nanosyn / Reaction Biology for CDK/cyclin lines)
From the text: as §1

BRAF V599E = target: T24, BRAF V599E (Homo sapiens, UniProt P15056, V600E)
T24 construct: purchased Thermo Fisher Scientific SelectScreen (plus Nanosyn / Reaction Biology for CDK/cyclin lines)
From the text: as §1

STK25 (YSK1) = target: T25, STK25 (YSK1) (Homo sapiens, UniProt O00506)
T25 construct: purchased Thermo Fisher Scientific SelectScreen (plus Nanosyn / Reaction Biology for CDK/cyclin lines)
From the text: as §1

EGFR (ErbB1) = target: T26, EGFR (ErbB1) (Homo sapiens, UniProt P00533)
T26 construct: purchased Thermo Fisher Scientific SelectScreen (plus Nanosyn / Reaction Biology for CDK/cyclin lines)
From the text: as §1

MAP4K5 (KHS1) = target: T27, MAP4K5 (KHS1) (Homo sapiens, UniProt Q9Y4K4)
T27 construct: purchased Thermo Fisher Scientific SelectScreen (plus Nanosyn / Reaction Biology for CDK/cyclin lines)
From the text: as §1

RET S891A = target: T28, RET S891A (Homo sapiens, UniProt P07949, S891A)
T28 construct: purchased Thermo Fisher Scientific SelectScreen (plus Nanosyn / Reaction Biology for CDK/cyclin lines)
From the text: as §1

NEK9 = target: T29, NEK9 (Homo sapiens, UniProt Q8TD19)
T29 construct: purchased Thermo Fisher Scientific SelectScreen (plus Nanosyn / Reaction Biology for CDK/cyclin lines)
From the text: as §1

GRK5 = target: T30, GRK5 (Homo sapiens, UniProt P34947)
T30 construct: purchased Thermo Fisher Scientific SelectScreen (plus Nanosyn / Reaction Biology for CDK/cyclin lines)
From the text: as §1

MAP3K9 (MLK1) = target: T31, MAP3K9 (MLK1) (Homo sapiens, UniProt P80192)
T31 construct: purchased Thermo Fisher Scientific SelectScreen (plus Nanosyn / Reaction Biology for CDK/cyclin lines)
T31 sequence (P80192 whole entry): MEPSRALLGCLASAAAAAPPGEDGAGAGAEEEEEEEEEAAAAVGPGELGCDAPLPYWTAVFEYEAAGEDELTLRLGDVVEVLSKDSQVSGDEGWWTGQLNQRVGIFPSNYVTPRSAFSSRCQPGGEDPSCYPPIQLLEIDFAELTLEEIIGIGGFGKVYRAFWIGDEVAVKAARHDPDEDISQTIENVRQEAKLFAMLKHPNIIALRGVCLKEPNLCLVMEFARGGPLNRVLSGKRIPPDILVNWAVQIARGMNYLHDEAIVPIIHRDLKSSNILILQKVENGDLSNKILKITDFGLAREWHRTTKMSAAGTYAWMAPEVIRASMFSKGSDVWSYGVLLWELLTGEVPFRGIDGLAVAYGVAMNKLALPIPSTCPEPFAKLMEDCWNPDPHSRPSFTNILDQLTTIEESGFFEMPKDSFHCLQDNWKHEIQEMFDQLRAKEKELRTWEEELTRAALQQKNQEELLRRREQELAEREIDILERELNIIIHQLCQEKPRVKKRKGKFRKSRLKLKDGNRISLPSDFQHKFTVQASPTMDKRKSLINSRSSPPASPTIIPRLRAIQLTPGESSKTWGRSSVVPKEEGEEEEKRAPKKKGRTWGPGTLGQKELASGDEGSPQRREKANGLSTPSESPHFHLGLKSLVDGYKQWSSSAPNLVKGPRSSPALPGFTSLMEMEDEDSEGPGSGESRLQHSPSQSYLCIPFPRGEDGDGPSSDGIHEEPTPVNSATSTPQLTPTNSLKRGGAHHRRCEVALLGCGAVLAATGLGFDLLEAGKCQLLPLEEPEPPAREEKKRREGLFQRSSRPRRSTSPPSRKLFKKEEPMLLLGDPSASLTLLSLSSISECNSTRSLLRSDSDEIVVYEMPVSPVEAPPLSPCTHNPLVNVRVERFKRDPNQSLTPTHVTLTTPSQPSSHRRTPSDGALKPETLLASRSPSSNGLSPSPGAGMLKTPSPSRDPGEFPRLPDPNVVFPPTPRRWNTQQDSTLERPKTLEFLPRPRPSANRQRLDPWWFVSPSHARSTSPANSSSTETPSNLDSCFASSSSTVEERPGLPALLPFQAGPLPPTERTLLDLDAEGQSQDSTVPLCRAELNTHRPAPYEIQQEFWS
From the text: as §1

CDK18/cyclin Y = target: T32, CDK18/cyclin Y (Homo sapiens, UniProt Q07002)
T32 construct: purchased Thermo Fisher Scientific SelectScreen (plus Nanosyn / Reaction Biology for CDK/cyclin lines)
From the text: as §1

PAK7 (KIAA1264) = target: T33, PAK7 (KIAA1264) (Homo sapiens, UniProt Q9P286)
T33 construct: purchased Thermo Fisher Scientific SelectScreen (plus Nanosyn / Reaction Biology for CDK/cyclin lines)
T33 sequence (Q9P286 whole entry): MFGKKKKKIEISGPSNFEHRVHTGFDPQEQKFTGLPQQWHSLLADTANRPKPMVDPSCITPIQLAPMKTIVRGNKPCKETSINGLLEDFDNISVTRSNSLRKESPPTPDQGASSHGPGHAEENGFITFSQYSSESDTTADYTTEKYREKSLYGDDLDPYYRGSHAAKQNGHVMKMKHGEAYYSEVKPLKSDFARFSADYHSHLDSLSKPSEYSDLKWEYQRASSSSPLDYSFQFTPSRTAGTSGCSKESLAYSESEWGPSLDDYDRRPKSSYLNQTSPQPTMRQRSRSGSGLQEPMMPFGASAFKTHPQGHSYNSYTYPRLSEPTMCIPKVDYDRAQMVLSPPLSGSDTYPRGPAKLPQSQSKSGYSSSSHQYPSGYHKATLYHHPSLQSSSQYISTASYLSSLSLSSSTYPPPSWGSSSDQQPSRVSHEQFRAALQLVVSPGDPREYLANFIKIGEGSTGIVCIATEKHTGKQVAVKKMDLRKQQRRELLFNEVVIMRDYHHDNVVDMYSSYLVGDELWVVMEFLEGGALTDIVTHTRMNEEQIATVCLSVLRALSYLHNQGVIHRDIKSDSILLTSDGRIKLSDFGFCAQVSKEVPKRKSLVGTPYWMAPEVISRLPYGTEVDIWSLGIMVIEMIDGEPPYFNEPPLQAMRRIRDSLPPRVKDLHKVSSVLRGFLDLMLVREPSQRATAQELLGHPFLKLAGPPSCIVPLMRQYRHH
From the text: as §1

PLK2 = target: T34, PLK2 (Homo sapiens, UniProt Q9NYY3)
T34 construct: purchased Thermo Fisher Scientific SelectScreen (plus Nanosyn / Reaction Biology for CDK/cyclin lines)
From the text: as §1

AMPK A2/B1/G1 = target: T35, AMPK A2/B1/G1 (Homo sapiens, UniProt P54646)
T35 construct: purchased Thermo Fisher Scientific SelectScreen (plus Nanosyn / Reaction Biology for CDK/cyclin lines)
From the text: as §1

NIM1K = target: T36, NIM1K (Homo sapiens, UniProt Q8IY84)
T36 construct: purchased Thermo Fisher Scientific SelectScreen (plus Nanosyn / Reaction Biology for CDK/cyclin lines)
From the text: as §1

ABL1 Y253F = target: T37, ABL1 Y253F (Homo sapiens, UniProt P00519, Y253F)
T37 construct: purchased Thermo Fisher Scientific SelectScreen (plus Nanosyn / Reaction Biology for CDK/cyclin lines)
From the text: as §1

T1 sequence (Q8WTQ7 whole entry): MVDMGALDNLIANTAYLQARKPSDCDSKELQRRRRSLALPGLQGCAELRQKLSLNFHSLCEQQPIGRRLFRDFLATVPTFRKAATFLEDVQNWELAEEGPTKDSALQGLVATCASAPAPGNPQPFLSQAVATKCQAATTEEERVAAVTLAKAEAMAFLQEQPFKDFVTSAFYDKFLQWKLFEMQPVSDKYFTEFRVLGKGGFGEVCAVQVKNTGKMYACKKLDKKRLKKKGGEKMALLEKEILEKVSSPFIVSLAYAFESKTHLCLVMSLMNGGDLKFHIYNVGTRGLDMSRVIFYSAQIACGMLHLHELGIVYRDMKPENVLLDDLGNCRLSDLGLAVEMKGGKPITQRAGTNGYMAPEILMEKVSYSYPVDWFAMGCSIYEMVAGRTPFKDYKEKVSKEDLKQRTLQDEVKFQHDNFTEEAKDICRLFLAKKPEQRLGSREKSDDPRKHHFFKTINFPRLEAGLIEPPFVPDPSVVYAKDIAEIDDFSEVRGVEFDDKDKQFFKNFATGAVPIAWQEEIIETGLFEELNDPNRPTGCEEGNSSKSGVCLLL

For `NS(=O)(=O)c1ccc(Nc2ncc3cc4n(c3n2)C2(CCCCC2)C(=O)NN4)cc1` [INX-315], the inhibition at 0.1 µM (GRK7) was 62%, the inhibition at 0.1 µM (MARK1 (MARK)) was 9% and the inhibition at 0.1 µM (GSK3B (GSK3 beta)) was 17%. The inhibition at 0.1 µM (CDK5/p25) was 93%, the inhibition at 0.1 µM (RET V804E) was 13% and the inhibition at 0.1 µM (BLK) was 11%. It also gave an inhibition at 0.1 µM (SGKL (SGK3)) of 6%, an inhibition at 0.1 µM (PDK1 Direct) of 8% and an inhibition at 0.1 µM (MARK4) of 8%. It also gave an inhibition at 0.1 µM (BRSK1 (SAD1)) of 16%, an inhibition at 0.1 µM (AKT1 (PKB alpha)) of 6% and an inhibition at 0.1 µM (RAF1 (cRAF) Y340D Y341D) of 5%. The inhibition at 0.1 µM (PEAK1) was 10%, the inhibition at 0.1 µM (CAMK1D (CaMKI delta)) was 1% and the inhibition at 0.1 µM (HIPK3 (YAK1)) was 4%. The inhibition at 0.1 µM (BMX) was 22%, the inhibition at 0.1 µM (MAP2K2 (MEK2)) was 17% and the inhibition at 0.1 µM (ABL1 G250E) was 7%. It also gave an inhibition at 0.1 µM (SGK2) of 5%, an inhibition at 0.1 µM (PHKG1) of 4% and an inhibition at 0.1 µM (MAPK10 (JNK3)) of 11%. It also gave an inhibition at 0.1 µM (CLK3) of -1%, an inhibition at 0.1 µM (RPS6KA6 (RSK4)) of 56% and an inhibition at 0.1 µM (BRAF V599E) of 7%. The inhibition at 0.1 µM (STK25 (YSK1)) was 1%, the inhibition at 0.1 µM (EGFR (ErbB1)) was 4% and the inhibition at 0.1 µM (MAP4K5 (KHS1)) was 23%. The inhibition at 0.1 µM (RET S891A) was 46%, the inhibition at 0.1 µM (NEK9) was 2% and the inhibition at 0.1 µM (GRK5) was 24%. For the same compound, the inhibition at 0.1 µM (MAP3K9 (MLK1)) was 22%, the inhibition at 0.1 µM (CDK18/cyclin Y) was 9% and the inhibition at 0.1 µM (PAK7 (KIAA1264)) was 1%. It also gave an inhibition at 0.1 µM (PLK2) of 5%, an inhibition at 0.1 µM (AMPK A2/B1/G1) of 5% and an inhibition at 0.1 µM (NIM1K) of 5%. For the same compound, the inhibition at 0.1 µM (ABL1 Y253F) was 8%.
